Tests used:
[1] = mice, oral dose of 10 mg/kg, comparison value; cited from earlier work
CD4+ T cells = experiment: Immune effects in CD4+ splenocytes, flow cytometry (wild type); type: cell-based, C57BL/6 mice; details: 0.1 micromolar, 48 h, vs vehicle, FIG. 4B
Source text: Cell culture. Spleens were excised from C57BL/6 mice and assessed in wild-type and LANCL2 deficient states. Spleens were crushed between the frosted ends of microscope slides and filtered to provide a cellular suspension. Red blood cells were lysed through hypotonic lysis. Remaining cells were washed and filtered. CD4+ T cells were enriched within the suspension using magnetic sorting based negative selection. Cells were collected and plated within 96 well plates coated with anti-CD3 and cultured in the presence of BT-63 at 0, 0.1, 1 and 10 micromolar or BT-104A, BT-104B, or BT-104C at 0.1 micromolar for 48 h. During the last 6 h of culture, cells were stimulated with phorbol 12-myristate-13-acetate (PMA) and ionomycin.
Immunological analysis. Cells were collected from 96 well plates and stained with a cocktail of antibodies for immunophenotyping by flow cytometry. Culture supernatant was collected and assayed for cytokine concentrations by cytometric bead array. Data was captured on a BD FACS Celesta and analyzed using FacsDiva.

[2] = system: C57B1/6 mice immunized with chicken collagen; experiment: Collagen induced model of arthritis; type: in vivo; details: spleens, 4 weeks daily oral 20 mg/kg vs vehicle
Protocol: Models. Six-week-old C57B1/6 mice were immunized with 200 μg of chicken collagen emulsified in complete Freund's adjuvant by intradermal injections at the base of the tail. Mice were treated with 20 mg/kg of BT-104-B or vehicle, daily for four weeks.
(§1) Immunological analysis. Spleens were excised from mice. Tissues were crushed and filtered to provide a cellular suspension. Red blood cells were lysed. Cells were labeled with mixtures of extracellular (CD45, CD3, CD4, CD8, CD11b, CD11c) and intracellular (IFNγ, IL17, TNF) antibodies in a sequential live staining in 96-well plates in preparation for flow cytometry. Data was captured on a BD FACS Celesta and analyzed using FACSDiva.

[3] = system: C57BL/6 mice with CCl4-induced steatohepatitis; experiment: CCl4 model of nonalcoholic steatohepatitis; type: in vivo; details: oral 20 mg/kg, after 2 weeks of treatment
Protocol: WD-induced model. C57BL/6 mice were administered bi-weekly intraperitoneal injections of 0.5 μL/g CCl4 to induce steatohepatitis for 4 weeks. Mice were treated daily, in a therapeutic manner after 2 weeks of injections. Treatment with BT-104-B (20 mg/kg) or vehicle control occurred by oral gavage. Dosage was calculated based off mean body weights.
Analysis. Livers were excised and weighed. Sections of livers were excised and stored in buffered formalin for Sirius red staining or snap frozen for assessment of fibrosis. Severity of fibrosis was assessed by scoring of Sirius red stained liver by microscopic examination.

NZB/W F1 mice = experiment: NZB/W F1 genetic mouse model of SLE (BT-104-B); type: in vivo; details: spleens, 12 weeks daily oral 20 mg/kg vs vehicle
Protocol: NZB/W F1 model. Twenty-four-week-old, female NZB/W F1 mice were randomized into vehicle or BT-104-B treated arms based on baseline urine protein levels. BT-104-B was administered daily at 20 mg/kg for 12 weeks. Mice were weighed on a weekly basis to update dosage formulation. Dosage was calculated based off mean body weights.
as §1, with “excised,” for “excised from mice. Tissues were”, “CD25)” for “CD11b, CD11c)”, “(IL21,” for “(IFNγ,”, “FOXP3)” for “TNF)”

| SMILES | maximum plasma concentration [1] | TNFa+ CD4+ T cells (CD4+ T cells) | proportions of IFNγ+ CD4+ T cells (CD4+ T cells) | proportion of IFNγ+ CD4+ T cells [2] | proportion of IL-17+ CD4+ T cells [2] | proportion of TNF+ CD11b+ CD11c+ myeloid cells [2] | fibrotic scoring ([3]; Sirius red) | liver weights [3] | proportion of CD25+ FOXP3+ CD4+ T cells (NZB/W F1 mice) | proportion of IL21+ CD4+ T cells (NZB/W F1 mice) | proportion of IL-17+ CD4+ T cells (NZB/W F1 mice) |
| --- | --- | --- | --- | --- | --- | --- | --- | --- | --- | --- | --- |
| O=C(c1cccc(-c2nc3ccccc3[nH]2)n1)N1CCN(C(=O)c2cccc(-c3nc4ccccc4[nH]3)n2)CC1 [BT-11, N,N-Bis(benzimidazolylpicolinoyl)piperazine] | 4.9 ng/mL | – | – | – | – | – | – | – | – | – | – |
| CC(C)(C(=O)c1ccccc1)N1CCN(C(=O)c2cccc(-c3nc4ccccc4[nH]3)n2)CC1 [BT-104-A] | – | significantly decreasing | significantly decrease | – | – | – | – | – | – | – | – |
| O=C(CN1C(=O)CN(C(=O)c2cccc(-c3nc4ccccc4[nH]3)n2)CC1=O)c1ccccc1 [BT-104-B, 4-(6-(1H-benzo[d]imidazol-2-yl)picolinoyl)-1-(2-oxo-2-phenylethyl)piperazine-2,6-dione] | – | significantly decreasing | significantly decrease | significantly reduced | significantly reduced | significantly reduced | reduced | reduced | significantly increasing | significantly reduced | significantly reduced |

— patent US12145920B2, “Lanthionine c-like protein 2 ligands, cells prepared therewith, and therapies using same” (NImmune Biopharma, Inc., priority 2019, dated 2024)
